The values below are quoted from earlier work in US10950327B2, “Methods and tools for detecting, diagnosing, predicting, prognosticating, or treating a neurobehavioral phenotype in a subject” (BlackThorn Therapeutics, Inc., priority 2017, dated 2021).

In series [1] the test system is mean functional connectivity (Global Brain Connectivity, GBC). Particulars: healthy human subjects.
Series [2] has as its system patients with schizophrenia.
For series [3] the following is noted: in vivo.
The next series deals with 5HT6 receptors (Homo sapiens, UniProt P50406).
Sequence of 5HT6 receptors (P50406 whole entry): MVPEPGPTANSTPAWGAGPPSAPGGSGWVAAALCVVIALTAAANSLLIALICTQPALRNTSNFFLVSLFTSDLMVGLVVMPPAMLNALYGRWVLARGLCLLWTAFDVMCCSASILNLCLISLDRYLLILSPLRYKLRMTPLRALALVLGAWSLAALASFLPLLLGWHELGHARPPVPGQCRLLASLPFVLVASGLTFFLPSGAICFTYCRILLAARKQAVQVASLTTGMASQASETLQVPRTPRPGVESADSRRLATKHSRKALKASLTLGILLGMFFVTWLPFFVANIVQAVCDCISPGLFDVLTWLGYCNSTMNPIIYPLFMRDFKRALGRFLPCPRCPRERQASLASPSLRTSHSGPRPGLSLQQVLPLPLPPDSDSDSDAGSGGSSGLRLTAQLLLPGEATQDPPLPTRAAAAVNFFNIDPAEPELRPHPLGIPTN
The target of series [4] is muscarinic M3 (CHRM3) receptor (Homo sapiens, UniProt P20309).
Sequence of muscarinic M3 (CHRM3) receptor (P20309 whole entry): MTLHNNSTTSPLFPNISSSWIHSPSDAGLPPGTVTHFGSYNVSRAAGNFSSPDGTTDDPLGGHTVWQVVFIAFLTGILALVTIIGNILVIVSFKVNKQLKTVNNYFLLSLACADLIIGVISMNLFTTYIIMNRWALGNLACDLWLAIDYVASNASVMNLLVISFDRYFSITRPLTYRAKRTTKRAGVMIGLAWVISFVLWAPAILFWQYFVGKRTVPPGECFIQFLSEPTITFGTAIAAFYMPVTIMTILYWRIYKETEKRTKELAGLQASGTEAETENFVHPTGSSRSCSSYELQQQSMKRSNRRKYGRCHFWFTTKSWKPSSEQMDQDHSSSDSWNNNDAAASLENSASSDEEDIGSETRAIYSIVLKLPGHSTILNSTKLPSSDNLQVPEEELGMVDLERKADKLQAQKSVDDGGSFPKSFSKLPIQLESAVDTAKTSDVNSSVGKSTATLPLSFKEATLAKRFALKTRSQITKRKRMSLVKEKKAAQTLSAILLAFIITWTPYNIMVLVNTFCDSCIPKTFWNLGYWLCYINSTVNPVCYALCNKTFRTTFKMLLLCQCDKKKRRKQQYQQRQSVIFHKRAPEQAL

As to `CCN(CC)C(=O)[C@@H]1C=C2c3cccc4[nH]cc(c34)C[C@H]2N(C)C1` [LSD, lysergic acid diethylamide], in series [1] (acute administration, fMRI-derived cortical map), the “change in mean functional connectivity (Global Brain Connectivity, GBC)” value is “large increase in occipital visual cortex”.

As to `Cc1nc2cccc(C(F)(F)F)c2c(=O)n1-c1ccc(OCCCN2CCCC2)cc1` [MK-0249], in series [2], the “improvement of cognitive deficits” value is listed as “failed to improve cognitive deficits”.

For the compound `O=C1Nc2ccc(Cl)cc2[C@@](C#CC2CC2)(C(F)(F)F)O1` [efavirenz], in series [3], the “risk of neuropsychiatric symptoms” value is “increase the risk of neuropsychiatric symptoms”. Moreover, the “activity at 5HT6 receptors” value at 5HT6 receptors is “inverse agonist activity”. Also, in the series with HIV-1, the “suppression of HIV-1” value is “effective in suppressing HIV-1”. Besides, the “activity at muscarinic M3 (CHRM3) receptor” value in series [4] is recorded as “antagonist activity”.

For `O=C(c1ccc(F)cc1)C1CCN(CCn2c(=O)[nH]c3ccccc3c2=O)CC1` [ketanserin], in series [1] (pre-administration before LSD), the “effect on LSD-induced neural change and behavioral effects” value is “blocked”.
